Results reported in patent US20160058743A1, “METHODS FOR TREATING SENSORIMOTOR IMPAIRMENTS ASSOCIATED WITH CERTAIN TYPES OF STROKE USING AMINOPYRIDINES” (ACORDA THERAPEUTICS, INC., priority 2013, published 2016).
“And” between values parts separate entries of the source, which are not always exact repeats. Identical values can stand only once. “Also recorded” adds a separate entry of the source. Like-named read-outs stand apart in the source and are kept apart here.

Columns and labels:
Type in all cases: in vivo, Sprague Dawley rats
[1] = 4-aminopyridine plasma levels 90 min after dosing (LC-MS/MS); conditions: Sprague Dawley, rat, oral, read-out: Mean (SE) 4-aminopyridine Plasma Level
Experimental: Blood sampling: After the on-drug behavior assessments were completed (Days 30, 32, 44, 46, 58 and 60), approximately 300 microliter blood sample was taken exactly 90 min after dosing to assess 4-AP plasma levels at that time. Blood was collected from the saphenous vein of each animal. Blood was collected into K3 EDTA tubes and centrifuged at 10,000 rpm for 10 minutes at 4 degrees C. Plasma was obtained, frozen and stored at approximately −80 C. Samples were analyzed for 4-AP levels. 4-AP concentration was determined using a validated liquid chromatography with tandem mass spectrometric detection method in positive electrospray mode.
Treatment groups: Animals had MCAO surgery and were allowed to recover for 56 days. Animals were then randomized into 2 groups based on their baseline behavior. Par oral dosing b.i.d. was initiated in the evening of Day 56 after MCAO. Behavior testing during dosing periods was started 1 hour after dosing. Blood was collected via saphenous vein just prior to and during treatment phases just after behavioral testing (90 minutes post dosing). All dosing was via gastric gavage, volume not to exceed 2 mL/kg.
Blood sampling: 300 microliter blood sample was collected from the saphenous vein of each animal on Day 56 just prior to the first dose and then exactly 90 min after the 6 dose at each dose level. Blood was collected, centrifuged, stored and analyzed as described in Example 2, above.

[2] = test system: rats with middle cerebral artery occlusion (MCAO); assay: Forelimb placing test after MCAO
[3] = test system: rats with middle cerebral artery occlusion (MCAO); assay: Forelimb placing test after MCAO; conditions: for Forelimb Placing Total Score: 0=normal, 12=maximally impaired
Text: (§1) In particular, the MCAO model in Sprague Dawley rats that was utilized in the experiments presented below mimics the conditions in human ischemic stroke. In this model, focal cerebral infarcts were made by permanent occlusion of the proximal right middle cerebral artery (MCA) using a modification of the method of Tamura et al. (No To Shinkei 1986; 38:747-51). Briefly, the temporalis muscle was bisected and reflected through an incision made midway between the eye and the ear canal. The proximal MCA was exposed through a subtemporal craniectomy without removing the zygomatic arch and without transecting the facial nerve.
(§2) In this experiment, Sprague Dawley rats were anesthetized, subjected to a surgery resulting in middle cerebral artery occlusion (MCAO), treated with and without 4-aminopyridine and behavioral assessments were performed as described below. Treatment was initiated at 4 weeks after stroke.
(§3) Dosing and Treatment: Rats were treated in accordance with the dosing schedule shown in Tables 2A, 2B, 3 and FIG. 2, with each Phase being a two week period of time. A solution of 4-AP was used in this experiment. Dosing was started at 4 weeks after ischemic event. 4-aminopyridine was dissolved in water for injection (WFI, Cellgro) and sterile filtered. Final concentrations of 0.315 mg/mL or 1.0 mg/mL of 4-aminopyridine were delivered at 2 mL/kg by gastric gavage, resulting in final doses of 0.63 mg/kg and 2 mg/kg respectively. Vehicle control treatment was WFI delivered at 2 mL/kg by gastric gavage. This study was divided into three treatment phases (1-3) with each randomized cohort of animals receiving a different dose level during each of the treatment phases. Starting on day 30 after MCAO (Day 30, start of phase 1), the animals received gavage dosing of solutions (2 mL/kg) approximately 12 hours apart, for a total of five doses. The same schedule was repeated with different treatment on Day 44 and Day 58 for phase 2 and 3 of the study, respectively. Animals were not treated during the 10 days between phases (washout period).
(§4) Treatment groups: Dosing was started 4 weeks after MCAO surgery. During these 4 weeks, weekly behavioral assessments, as defined below, were performed. Two dose levels of 4-AP plus vehicle control were assessed, with treatment starting at 4 weeks after ischemic event. All dosing was via gastric gavage, volume not to exceed 2 mL/kg. Animals were given the first dose and behavioral assessments were performed starting 60 minutes after dosing. Animals then received the second dose that day at the appropriate time and b.i.d (preferably every 12 hours) thereafter for 2 more days (3 total days of dosing, 5 total doses). One hour after the 5th dose, animals were subjected to behavioral assessments as defined below. Following the final behavioral assessment, drug was withdrawn for 10 or 11 days, behavior was re-assessed, and then animals were re-challenged with a cross-over treatment (Phase 2 of Table 2B) as described in Tables 2A, 2B and 3, followed by the same behavioral testing and dosing regimen. This cross-over was repeated one more time as well (Phase 3 of Table 2B) (see FIG. 2).
(§5) Behavioral test details: Behavioral evaluations were done by evaluators blinded to treatment assignment. Blinded assessments of sensorimotor function were performed just prior to MCAO surgery, 24 hours after MCAO surgery and weekly thereafter until the first phase of dosing using limb placing and body swing behavioral tests. As described above, behavioral assessments were timed exactly with dosing times. Animals were tested one hour after the 1st and 5th doses of each phase (i.e., Days 30 and 32 of the first phase, Days 44 and 46 of the second phase; and Days 58 and 60 of the third phase); animals were also tested during the washout periods on Days 42 and 56. Animals were given the first dose, behavioral assessments were performed starting 60 minutes later, and blood was collected 90 minutes after dosing. […]

[4] = test system: rats with middle cerebral artery occlusion (MCAO); assay: Body swing test after MCAO; conditions: for Body Swing Test (% right Swing): Group 3 mean, phase 2
Text: as §1, §2, §3
as §4, with “Animals then received the second dose that day at the appropriate time and b.i.d (preferably every 12 hours) thereafter for 2 more days (3 total days of dosing, 5 total doses). One hour after the 5th dose, animals were subjected to behavioral assessments as defined below.” left out, “This cross-over was repeated one more time as well (Phase 3 of Table 2B) (see FIG. 2).” left out

[5] = test system: rats with middle cerebral artery occlusion (MCAO); assay: Hindlimb placing test after MCAO
Text: as §1, §2, §3, §4, §5

[6] = Example 2, low (0.63 mg/kg) or high (2 mg/kg) dose b.i.d. p.o., started 4 weeks post MCAO, dose-responsive, reversible

Nc1ccncc1 [4-AP, 4-aminopyridine]
concentration at 90 min ([1]; 0.5 mg/kg, Example 17 dose escalation, Dose Level 0.5 mg/kg b.i.d. p.o., 90 min after 6th dose): 68.3 ng/mL
concentration at 90 min ([1]; 0.63 mg/kg, Group 1, Phase 2, Low 0.63 mg/kg b.i.d. p.o., 90 min after dosing): 64 ng/mL
concentration at 90 min ([1]; 0.63 mg/kg, Group 2, Phase 1, Low 0.63 mg/kg b.i.d. p.o., 90 min after dosing): 78.1 ng/mL
concentration at 90 min ([1]; 0.63 mg/kg, Group 3, Phase 3, Low 0.63 mg/kg b.i.d. p.o., 90 min after dosing): 61.8 ng/mL
concentration at 90 min ([1]; 1 mg/kg, Example 17 dose escalation, Dose Level 1.0 mg/kg b.i.d. p.o., 90 min after 6th dose): 114 ng/mL
concentration at 90 min ([1]; 2 mg/kg, Example 17 dose escalation, Dose Level 2.0 mg/kg b.i.d. p.o., 90 min after 6th dose): 185 ng/mL
concentration at 90 min ([1]; 2 mg/kg, Group 1, Phase 1, High 2.0 mg/kg b.i.d. p.o., 90 min after dosing): 142 ng/mL
concentration at 90 min ([1]; 2 mg/kg, Group 2, Phase 3, High 2.0 mg/kg b.i.d. p.o., 90 min after dosing): 144 ng/mL
concentration at 90 min ([1]; 2 mg/kg, Group 3, Phase 2, High 2.0 mg/kg b.i.d. p.o., 90 min after dosing): 129 ng/mL
Forelimb placing compared to vehicle ([2]; Example 17, 0.5 mg/kg b.i.d. p.o., Day 59 post-MCAO, p<0.001): significantly improved in forelimb placing
Forelimb test compared to vehicle ([2]; Example 17, 1 mg/kg b.i.d. p.o., Day 62 post-MCAO, p<0.001): measureable improvement
Forelimb function compared to vehicle ([2]; Example 17, 2 mg/kg b.i.d. p.o., Day 65 post-MCAO, p<0.0001): significant improvements
Effect on forelimb function (forelimb placing test) [3, 6]: effective to improve forelimb function; also recorded: significant improvement
Forelimb Placing Total Score ([3]; Group 2, D 30 post-MCAO, Low 4-AP 0.63 mg/kg b.i.d. p.o., 1 h after 1st dose, group Mean, N=15): 4.20
Forelimb Placing Total Score ([3]; Group 2, D 58 post-MCAO, High 4-AP 2.0 mg/kg b.i.d. p.o., 1 h after 1st dose, group Mean, N=15): 1.90
Forelimb Placing Total Score ([3]; Group 3, D 44 post-MCAO, High 4-AP 2.0 mg/kg b.i.d. p.o., 1 h after 1st dose, group Mean, N=15): 2.67
Forelimb Placing Total Score ([3]; Group 3, D 44 post-MCAO, High 4-AP 2.0 mg/kg b.i.d. p.o., 1 h after 1st dose, individual rats): 4.00 (3×) and 1.00 and 2.50 and 3.00 (3×) and 4.50 (2×) and 0.00 (3×) and 5.00 and 1.50
Forelimb Placing Total Score ([3]; Group 3, D 46 post-MCAO, High 4-AP 2.0 mg/kg b.i.d. p.o., 1 h after 5th dose, group Mean, N=15): 1.33
Forelimb Placing Total Score ([3]; Group 3, D 46 post-MCAO, High 4-AP 2.0 mg/kg b.i.d. p.o., 1 h after 5th dose, individual rats): 3.00 (3×) and 0.00 (5×) and 2.00 and 1.50 (3×) and 1.00 (2×) and 2.50
Forelimb Placing Total Score ([3]; Group 3, D 58 post-MCAO, Low 4-AP 0.63 mg/kg b.i.d. p.o., 1 h after 1st dose, group Mean, N=15): 2.00
Forelimb Placing Total Score ([3]; Group 3, D 58 post-MCAO, Low 4-AP 0.63 mg/kg b.i.d. p.o., 1 h after 1st dose, individual rats): 3.00 (4×) and 0.50 and 2.00 and 3.50 and 1.50 (2×) and 2.50 (2×) and 4.00 and 0.00 (3×)
Forelimb Placing Total Score ([3]; Group 3, D 60 post-MCAO, Low 4-AP 0.63 mg/kg b.i.d. p.o., 1 h after 5th dose, group Mean, N=15): 1.80
Forelimb Placing Total Score ([3]; Group 3, D 60 post-MCAO, Low 4-AP 0.63 mg/kg b.i.d. p.o., 1 h after 5th dose, individual rats): 3.00 (4×) and 1.00 (2×) and 2.00 (2×) and 3.50 and 0.50 and 2.50 (2×) and 0.00 (3×)
Effect on global body control (body swing test) ([4]; Example 2, low (0.63 mg/kg) or high (2 mg/kg) dose b.i.d. p.o., started 4 weeks post MCAO, dose-dependent, reversible): effective to improve global body control; also recorded: significant improvement
Body swing performance ([4]; Example 17 dose escalation, groups diverged before treatment initiation): no conclusions can be drawn
Body Swing Test (% right Swing) ([4]; D 44 after MCAO): 39.56%
Body Swing Test (% right Swing) ([4]; D 46 after MCAO): 40.44%
Effect on hindlimb function (hindlimb placing test) [5, 6]: effective to improve hindlimb function; also recorded: significant improvement
Hindlimb Placing Total Score ([5]; Group 1, D 32 post-MCAO, High 4-AP 2.0 mg/kg b.i.d. p.o., 1 h after 5th dose, group Mean, N=15, 0=normal, 6=maximally impaired): 0.97
Hindlimb Placing Total Score ([5]; Group 2 mean, D 58 after MCAO, phase 3, high dose (sequence lvh, b238, inferred)): 0.83
Hindlimb Placing Total Score ([5]; Group 2 mean, D 60 after MCAO, phase 3, high dose (sequence lvh, b238, inferred)): 0.23
Hindlimb Placing Total Score ([5]; Group 3 mean, D 44 after MCAO, phase 2): 0.90
Hindlimb Placing Total Score ([5]; Group 3 mean, D 46 after MCAO, phase 2): 0.30
